Results taken from ChEMBL document CHEMBL1212738, “Phenotypic and genotypic characterization of Enterobacteriaceae with decreased susceptibility to carbapenems: results from large hospital-based surveillance studies in China” (2010).
In brackets after ≈: the same amount, converted by molar mass.

Tests used:
[1] = test system: Escherichia coli; assay: Antimicrobial activity against Escherichia coli ZJ87 expressing KPC-2, TEM-1, ompC by CLSI method; format: functional
[2] = test system: Klebsiella pneumoniae; assay: Antimicrobial activity against Klebsiella pneumoniae ZJ70T expressing KPC-2 by CLSI method; format: functional
[3] = test system: Escherichia coli; assay: Antimicrobial activity against carbapenem-resistant Escherichia coli PU101 deficient in TEM-1, CTX-M-14, CMY-2, ompC by CLSI method; format: functional
[4] = test system: Klebsiella aerogenes; assay: Antimicrobial activity against carbapenem-resistant Enterobacter aerogenes PU41 deficient in CTX-M-14, DHA-1, qnrS1, ompC DEc, ompF by CLSI method; format: functional
[5] = test system: Escherichia coli; assay: Antimicrobial activity against Escherichia coli C600 transconjugant GZ66T expressing SHV-11, DHA-1 by CLSI method
[6] = test system: Klebsiella pneumoniae; assay: Antimicrobial activity against carbapenem-resistant Klebsiella pneumoniae PU8 deficient in SHV-11, DHA-1, aac(6')-Ib-cr, ompK35/36 by CLSI method; format: functional
[7] = test system: Klebsiella pneumoniae; assay: Antimicrobial activity against carbapenem-resistant Klebsiella pneumoniae PU5 deficient in SHV-12, DHA-1, aac(6')-Ib-cr, ompK35/36 by CLSI method; format: functional
[8] = test system: Citrobacter freundii; assay: Antimicrobial activity against Citrobacter freundii RJ78 expressing CMY-2, qnrA1, aac(6')-Ib-cr, ompC by CLSI method; format: functional
[9] = test system: Escherichia coli; assay: Antimicrobial activity against Escherichia coli PU102T expressing TEM-1, CTX-M-14, CMY-2 by CLSI method; format: functional
[10] = test system: Klebsiella aerogenes; assay: Antimicrobial activity against Enterobacter aerogenes PU41T expressing CTX-M-14, DHA-1, qnrS1 by CLSI method; format: functional
[11] = test system: Klebsiella pneumoniae; assay: Antimicrobial activity against carbapenem-resistant Klebsiella pneumoniae GZ83 deficient in SHV-11, CTX-M-14, ompK35/36 by CLSI method; format: functional
[12] = test system: Escherichia coli; assay: Antimicrobial activity against Escherichia coli HX74T expressing CTX-M-3 by CLSI method; format: functional
[13] = test system: Enterobacter cloacae; assay: Antimicrobial activity against carbapenem-resistant Enterobacter cloacae GX56 deficient in ompC and expressing low levels of ompF DE by CLSI method; format: functional
[14] = test system: Klebsiella pneumoniae; assay: Antimicrobial activity against Klebsiella pneumoniae GZ64T expressing IMP-4 by CLSI method; format: functional
[15] = test system: Escherichia coli; assay: Antimicrobial activity against carbapenem-resistant Escherichia coli HX74 deficient in TEM-1, CTX-M-14, CTX-M-3, aac(6')-Ibcr, ompC/F by CLSI method; format: functional
[16] = test system: Klebsiella pneumoniae; assay: Antimicrobial activity against carbapenem-resistant Klebsiella pneumoniae PU104 deficient in TEM-1, SHV-11, CTX-M-15, qnrS1, ompK35/36 by CLSI method; format: functional
[17] = test system: Klebsiella pneumoniae; assay: Antimicrobial activity against carbapenem-resistant Klebsiella pneumoniae CY1 deficient in SHV-11, DHA-1, ompK35/36 by CLSI method; format: functional
[18] = test system: Enterobacter cloacae; assay: Antimicrobial activity against carbapenem-resistant Enterobacter cloacae WH103 deficient in IMP-4, TEM-1, CTX-M-3, qnrS1, ompC by CLSI method; format: functional
[19] = test system: Escherichia coli; assay: Antimicrobial activity against Escherichia coli C600 transconjugant SZ62T expressing IMP-4, qnrS1by CLSI method
[20] = test system: Klebsiella pneumoniae; assay: Antimicrobial activity against carbapenem-resistant Klebsiella pneumoniae PU4 deficient in SHV-1, DHA-1, ompK35/36 by CLSI method; format: functional
[21] = test system: Klebsiella pneumoniae; assay: Antimicrobial activity against carbapenem-resistant Klebsiella pneumoniae PU105 deficient TEM-1, SHV-12, CTX-M-14, DHA-1, qnrB10/B4-like, aac(6')-Ib-cr, ompK35/36 by CLSI method; format: functional
[22] = test system: Enterobacter cloacae; assay: Antimicrobial activity against carbapenem-resistant Enterobacter cloacae GX24 deficient in TEM-1, DHA-1, aac(6')-Ib, ompC by CLSI method; format: functional
[23] = test system: Enterobacter cloacae; assay: Antimicrobial activity against carbapenem-resistant Enterobacter cloacae SZ92 deficient in IMP-4, TEM-1, CTX-M-14, DHA-1, qnrB10/B4-like, aac(6')-Ib, ompC by CLSI method; format: functional
[24] = test system: Klebsiella aerogenes; assay: Antimicrobial activity against carbapenem-resistant Enterobacter aerogenes WH85 deficient in TEM-1, CTX-M-3, ompC/F by CLSI method; format: functional
[25] = test system: Klebsiella pneumoniae; assay: Antimicrobial activity against carbapenem-resistant Klebsiella pneumoniae FZ47 deficient in IMP-8, TEM-1, SHV-11, CTX-M-14, qnrB2, aac(6')-Ib, ompK35/36 by CLSI method; format: functional
[26] = test system: Escherichia coli; assay: Antimicrobial activity against carbapenem-resistant Escherichia coli ZJ86 expressing KPC-2, TEM-1 with ompC loss by CLSI method
[27] = test system: Enterobacter cloacae; assay: Antimicrobial activity against carbapenem-resistant Enterobacter cloacae NJ89 deficient in CTX-M-14, ompC/F by CLSI method; format: functional
[28] = test system: Klebsiella pneumoniae; assay: Antimicrobial activity against Klebsiella pneumoniae WH77 expressing IMP-4, TEM-1, SHV-14, CTX-M-3, qnrS1 by CLSI method; format: functional
[29] = test system: Klebsiella pneumoniae; assay: Antimicrobial activity against Klebsiella pneumoniae ZJ99 expressing KPC-2, CTX-M-3, qnrS1, ompK35 DE by CLSI method; format: functional
[30] = test system: Klebsiella pneumoniae; assay: Antimicrobial activity against carbapenem-resistant Klebsiella pneumoniae FZ49 deficient in IMP-8, TEM-1, SHV-11, CTX-M-14, qnrB2, aac(6')-Ib, ompK35/36 by CLSI method; format: functional
[31] = test system: Escherichia coli; assay: Antimicrobial activity against Escherichia coli C600 transconjugant WH77T expressing IMP-4, TEM-1, CTX-M-3, qnrS1 by CLSI method
[32] = test system: Klebsiella pneumoniae; assay: Antimicrobial activity against carbapenem-resistant Klebsiella pneumoniae ZJ18 deficient in KPC-2, SHV-28, DHA-1, ompK35 by CLSI method; format: functional
[33] = test system: Escherichia coli; assay: Antimicrobial activity against Escherichia coli C600 by CLSI method; format: functional
[34] = test system: Klebsiella pneumoniae; assay: Antimicrobial activity against Klebsiella pneumoniae ZJ68T expressing CTX-M-15 by CLSI method; format: functional
[35] = test system: Klebsiella pneumoniae; assay: Antimicrobial activity against carbapenem-resistant Klebsiella pneumoniae ZJ71 deficient in KPC-2, TEM-1, SHV-11, CTX-M-14, ompK35 by CLSI method; format: functional
[36] = test system: Citrobacter freundii; assay: Antimicrobial activity against Citrobacter freundii SZ62 expressing IMP-4, TEM-1, CMY-2, qnrS1, aac(6')-Ib-cr by CLSI method; format: functional
[37] = test system: Klebsiella pneumoniae; assay: Antimicrobial activity against Klebsiella pneumoniae ZJ18T expressing KPC-2, DHA-1 by CLSI method; format: functional
[38] = test system: Klebsiella pneumoniae; assay: Antimicrobial activity against carbapenem-resistant Klebsiella pneumoniae ZJ68 deficient in CTX-M-15, ompK35/36 by CLSI method
[39] = test system: Escherichia coli; assay: Antimicrobial activity against Escherichia coli ZJ86T expressing KPC-2 by CLSI method; format: functional
[40] = test system: Klebsiella pneumoniae; assay: Antimicrobial activity against Klebsiella pneumoniae ZJ71T expressing KPC-2 by CLSI method; format: functional

SMILES | MIC [1] [µg/mL] | MIC [2] [µg/mL] | MIC [3] [µg/mL] | MIC [4] [µg/mL] | MIC [5] [µg/mL] | MIC [6] [µg/mL] | MIC [7] [µg/mL] | MIC [8] [µg/mL] | MIC [9] [µg/mL] | MIC [10] [µg/mL] | MIC [11] [µg/mL] | MIC [12] [µg/mL] | MIC [13] [µg/mL] | MIC [14] [µg/mL] | MIC [15] [µg/mL] | MIC [16] [µg/mL] | MIC [17] [µg/mL] | MIC [18] [µg/mL] | MIC [19] [µg/mL] | MIC [20] [µg/mL] | other results
CC(C)(O/N=C(\C(=O)N[C@@H]1C(=O)N2C(C(=O)[O-])=C(C[n+]3ccccc3)CS[C@H]12)c1csc(N)n1)C(=O)O [CEFTAZIDIME] | 32 (≈ 58.5 µM) | 32 (≈ 58.5 µM) | > 256 | 64 (≈ 117 µM) | 128 (≈ 234 µM) | 256 (≈ 468 µM) | 256 (≈ 468 µM) | 128 (≈ 234 µM) | 64 (≈ 117 µM) | 64 (≈ 117 µM) | > 256 | 256 (≈ 468 µM) | 256 (≈ 468 µM) | 256 (≈ 468 µM) | 256 (≈ 468 µM) | > 256 | 256 (≈ 468 µM) | > 256 | > 256 | 64 (≈ 117 µM) | MIC [21]: > 256 µg/mL; MIC [22]: > 256 µg/mL; MIC [23]: > 256 µg/mL; MIC [24]: 32 µg/mL (≈ 58.5 µM); MIC [25]: > 256 µg/mL; MIC [26]: 32 µg/mL (≈ 58.5 µM); MIC [27]: > 256 µg/mL; MIC [28]: 256 µg/mL (≈ 468 µM); MIC [29]: 64 µg/mL (≈ 117 µM); MIC [30]: > 256 µg/mL; MIC [31]: > 256 µg/mL; MIC [32]: 64 µg/mL (≈ 117 µM); MIC [33]: 0.5 µg/mL (≈ 0.915 µM); MIC [34]: 256 µg/mL (≈ 468 µM); MIC [35]: 32 µg/mL (≈ 58.5 µM); MIC [36]: > 256 µg/mL; MIC [37]: 16 µg/mL (≈ 29.3 µM); MIC [38]: 256 µg/mL (≈ 468 µM); MIC [39]: 32 µg/mL (≈ 58.5 µM); MIC [40]: 32 µg/mL (≈ 58.5 µM)
CN(C)c1cc(NC(=O)CNC(C)(C)C)c(O)c2c1C[C@H]1C[C@H]3[C@H](N(C)C)C(O)=C(C(N)=O)C(=O)[C@@]3(O)C(O)=C1C2=O [TIGECYCLINE] | 0.25 (≈ 0.427 µM) | 0.13 (≈ 0.222 µM) | 0.064 (≈ 0.109 µM) | 1 (≈ 1.71 µM) | 0.125 (≈ 0.213 µM) | 1 (≈ 1.71 µM) | 0.5 (≈ 0.854 µM) | 1 (≈ 1.71 µM) | 0.25 (≈ 0.427 µM) | 0.064 (≈ 0.109 µM) | 0.5 (≈ 0.854 µM) | 0.125 (≈ 0.213 µM) | 4 (≈ 6.83 µM) | 0.06 (≈ 0.102 µM) | 0.064 (≈ 0.109 µM) | 0.5 (≈ 0.854 µM) | 16 (≈ 27.3 µM) | 1 (≈ 1.71 µM) | 0.13 (≈ 0.222 µM) | 4 (≈ 6.83 µM) | MIC [21]: 2 µg/mL (≈ 3.41 µM); MIC [22]: 1 µg/mL (≈ 1.71 µM); MIC [23]: 1 µg/mL (≈ 1.71 µM); MIC [24]: 0.064 µg/mL (≈ 0.109 µM); MIC [25]: 1 µg/mL (≈ 1.71 µM); MIC [26]: 0.25 µg/mL (≈ 0.427 µM); MIC [27]: 0.5 µg/mL (≈ 0.854 µM); MIC [28]: 0.5 µg/mL (≈ 0.854 µM); MIC [29]: 1 µg/mL (≈ 1.71 µM); MIC [30]: 0.5 µg/mL (≈ 0.854 µM); MIC [31]: 0.06 µg/mL (≈ 0.102 µM); MIC [32]: 1 µg/mL (≈ 1.71 µM); MIC [33]: 0.06 µg/mL (≈ 0.102 µM); MIC [34]: 0.064 µg/mL (≈ 0.109 µM); MIC [35]: 0.13 µg/mL (≈ 0.222 µM); MIC [36]: 1 µg/mL (≈ 1.71 µM); MIC [37]: 0.06 µg/mL (≈ 0.102 µM); MIC [38]: 0.125 µg/mL (≈ 0.213 µM); MIC [39]: 0.25 µg/mL (≈ 0.427 µM); MIC [40]: 0.13 µg/mL (≈ 0.222 µM)
